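Compound exposure: 48 hours, 5 concentrations, 96-well plates. At the GI50, growth is halved.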 The source made the active and inactive calls. Rule as the data show it: active = GI50 up to about 1.1 µM and inactive = higher.
Assays:
Assay in all cases: NCI anticancer screen, dose series, 48 h
[1] = test system: 786-0
[2] = test system: A498
[3] = test system: ACHN
[4] = test system: HCT-116
[5] = test system: HOP-92
[6] = test system: HT-29
[7] = test system: K562
[8] = test system: KM12
[9] = test system: LOX IMVI
[10] = test system: M14
[11] = test system: MDA-MB-231
[12] = test system: MDA-MB-435
[13] = test system: MOLT-4
[14] = test system: NCI-H460
[15] = test system: NCI-H522
[16] = test system: NCI/ADR-RES
[17] = test system: SF-268
[18] = test system: SK-MEL-28
[19] = test system: SR
[20] = test system: U-251

Compound	GI50 [1]	GI50 [2]	GI50 [3]	GI50 [4]	GI50 [5]	GI50 [6]	GI50 [7]	GI50 [8]	GI50 [9]	GI50 [10]	GI50 [11]	GI50 [12]	GI50 [13]	GI50 [14]	GI50 [15]	GI50 [16]	GI50 [17]	GI50 [18]	GI50 [19]	GI50 [20]
Cc1ccc2c(c1)C(=O)/C(=C1/CCc3ccc(C)cc31)C2	46 µM (inactive)	> 100 µM (inactive)	> 100 µM (inactive)	59 µM (inactive)	> 100 µM (inactive)	> 100 µM (inactive)	76 µM (inactive)	> 100 µM (inactive)	> 100 µM (inactive)	> 100 µM (inactive)	27.8 µM (inactive)	> 100 µM (inactive)	> 100 µM (inactive)	> 100 µM (inactive)	32.4 µM (inactive)	> 100 µM (inactive)	> 100 µM (inactive)	> 100 µM (inactive)	35.6 µM (inactive)	> 100 µM (inactive)
Cc1cc(Cl)ccc1NC(=O)/C(Cc1nc2ccc(C(=O)c3ccccc3)cc2nc1O)=N/NC(=O)c1ccncc1	> 100 µM (inactive)	> 100 µM (inactive)	> 100 µM (inactive)	50.6 µM (inactive)	> 100 µM (inactive)	> 100 µM (inactive)	63.7 µM (inactive)	39.1 µM (inactive)	> 100 µM (inactive)	> 100 µM (inactive)	> 100 µM (inactive)	42.4 µM (inactive)	64.3 µM (inactive)	> 100 µM (inactive)	> 100 µM (inactive)	> 100 µM (inactive)	> 100 µM (inactive)	> 100 µM (inactive)	21.7 µM (inactive)	> 100 µM (inactive)
Clc1nc(Cl)c(CBr)c(Cl)n1	2.24 µM (inactive)	18.1 µM (inactive)	4.84 µM (inactive)	2.48 µM (inactive)	2.28 µM (inactive)	4.29 µM (inactive)	2 µM (inactive)	2.71 µM (inactive)	1.83 µM (inactive)	2.91 µM (inactive)	1.9 µM (inactive)	5.05 µM (inactive)	1.45 µM (inactive)	4.3 µM (inactive)	1.5 µM (inactive)	4.29 µM (inactive)	8.02 µM (inactive)	5.74 µM (inactive)	1.74 µM (inactive)	4.06 µM (inactive)
CCN(CC)CCn1ncc2c3c(=O)c4cccnc4n(CCN(CC)CC)c3ccc21	5.97 µM (inactive)	> 10 µM (inactive)	5.21 µM (inactive)	3.54 µM (inactive)	> 10 µM (inactive)	3.51 µM (inactive)	> 10 µM (inactive)	6.19 µM (inactive)	5.41 µM (inactive)	> 10 µM (inactive)	> 10 µM (inactive)	6.21 µM (inactive)	4.39 µM (inactive)	6.18 µM (inactive)	> 10 µM (inactive)	9.18 µM (inactive)	7.43 µM (inactive)	> 10 µM (inactive)	6.98 µM (inactive)	> 10 µM (inactive)
CC(=O)OCC1OC(O[C@H]2C=C[C@@H](C(=O)OCc3ccccc3)n3c(=O)n(-c4ccccc4)c(=O)n32)C(OC(C)=O)C(OC(C)=O)C1OC(C)=O (stereo not given in full)	1.6 µM (inactive)	2.55 µM (inactive)	1.71 µM (inactive)	2.22 µM (inactive)	1.96 µM (inactive)	1.56 µM (inactive)	1.63 µM (inactive)	3.27 µM (inactive)	1.2 µM (inactive)	1.78 µM (inactive)	1.89 µM (inactive)	2.07 µM (inactive)	2.09 µM (inactive)	1.58 µM (inactive)	0.986 µM (active)	3.2 µM (inactive)	1.78 µM (inactive)	1.86 µM (inactive)	1.3 µM (inactive)	2.14 µM (inactive)
Cc1cc(S(=O)(=O)N=C2N(Cc3ccccc3)CCN2Cc2ccccc2)c(S)cc1Cl	> 100 µM (inactive)	> 100 µM (inactive)	> 10 µM (inactive)	> 100 µM (inactive)	> 100 µM (inactive)	> 100 µM (inactive)	> 100 µM (inactive)	> 100 µM (inactive)	70.8 µM (inactive)	> 100 µM (inactive)	> 100 µM (inactive)	> 100 µM (inactive)	> 100 µM (inactive)	56.1 µM (inactive)	40.6 µM (inactive)	> 100 µM (inactive)	36 µM (inactive)	> 100 µM (inactive)	95.9 µM (inactive)	54.8 µM (inactive)
O=[N+]([O-])C(C(Cl)=C(Cl)Cl)=C(n1nnc2ccccc21)n1nnc2ccccc21	13.2 µM (inactive)	> 57.9 µM (inactive)	25.6 µM (inactive)	20.5 µM (inactive)	43.5 µM (inactive)	26 µM (inactive)	11.5 µM (inactive)	> 58.5 µM (inactive)	24.4 µM (inactive)	30.7 µM (inactive)	20.4 µM (inactive)	27.9 µM (inactive)	9.33 µM (inactive)	51.6 µM (inactive)	18.5 µM (inactive)	32.4 µM (inactive)	30.1 µM (inactive)	23.5 µM (inactive)	8.45 µM (inactive)	36.1 µM (inactive)
COc1cc(C2c3cc4c(cc3OC(NCCO)C2C)OCO4)cc(OC)c1OC (stereo not given)	1.8 µM (inactive)	0.325 µM (active)	0.755 µM (active)	0.364 µM (active)	0.188 µM (active)	0.369 µM (active)	0.195 µM (active)	0.382 µM (active)	0.42 µM (active)	0.27 µM (active)	1.6 µM (inactive)	0.0927 µM (active)	0.489 µM (active)	0.409 µM (active)	0.241 µM (active)	0.807 µM (active)	2.05 µM (inactive)	0.713 µM (active)	0.248 µM (active)	0.406 µM (active)

Reference: ChEMBL document CHEMBL1201862, “PubChem BioAssay data set” (2004)
